Laboratory results published in the NIST ThermoML archive (doi:10.1016/j.fluid.2014.04.038).

Conditions: Liquid, Hot wire method

Cc1ccccc1 [toluene]
Conditions | thermal conductivity [W/m/K]
318.8 K | 0.1241
328.48 K | 0.1218
333.34 K | 0.1209
338.23 K | 0.1195
341.16 K | 0.1201
343.09 K | 0.1176
346.01 K | 0.116
350.87 K | 0.1149
355.71 K | 0.1151
365.42 K | 0.1116
370.29 K | 0.1112
